Holding throughout (assay): growth of human tumour cells (NCI), 48 h
For test [1], the system named is ACHN renal.
The test system of test [2] is HL-60(TB) leukemia.
For test [3], the system named is HOP-62 NSCLC.
Test [4] has as its system M14 melanoma.
Test [5] relates to OVCAR-4 ovarian.
Test [6] deals with RXF 393 renal.
For test [7], the system named is SF-295 CNS.
Test [8] relates to SK-MEL-28 melanoma.
Test [9] concerns TK-10 renal.
In test [10] the test system is U251 CNS.

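Test compounds were applied to cells in 96-well plates for 48 hours at 5 doses. The concentration for 50% growth inhibition is given as GI50. TGI is the concentration that stops growth completely.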

For `COc1cc(=O)oc(/C=C/C=O)c1C`, the TGI in [1] is 39.6 µM; in test [2], 83.9 µM; in test [3], 34.9 µM; in [4], 33.8 µM; in test [5] it was 32.5 µM; in test [6] it was 34.8 µM. Also, the TGI in test [7] amounted to 30.3 µM; in test [8], 26.6 µM; in test [9] it was 76.2 µM; in [10], 28.6 µM.
Turning to `COC1C(O)C(C)OC(OC2C(Oc3cccc4c(O)c5c(=O)oc6ccc(C)c7c(=O)oc(c34)c5c67)OC(C)C3O[C@H](c4ccccc4)OC32)C1O` (some centres not stated), the GI50 in [1] was 0.0276 µM; in test [3], 0.15 µM; in test [4], 0.514 µM. The TGI in [2] is 4.53 µM; in test [3], 2.17 µM; in [4] it was 6.48 µM; in test [5] it was 9.75 µM; in [6], 5.91 µM; in [7], 3.97 µM. Moreover, the TGI was found to be 3.92 µM in test [8], 7.37 µM in test [9] and 10.9 µM in test [10].
For `C=C1C(=O)O[C@H]2[C@H]1CC/C(Cn1cc(CNCCc3c[nH]c4ccc(Cl)cc34)nn1)=C\CC[C@@]1(C)O[C@@H]21`, the GI50 in [1] was 10.2 µM; in test [2], 1.12 µM; in [3], 67.5 µM; in test [4], 13.7 µM; in test [5] it was 5.23 µM; in test [6] it was 2.66 µM. Further, the GI50 in [7] is 30.9 µM; in test [8], 10.7 µM; in [9], 2.29 µM; in test [10], 7.59 µM. Moreover, the TGI in test [1] is 22.2 µM; in test [2], 3.46 µM; in test [3], above 100 µM; in [4], 31.2 µM; in test [5] it was 19.7 µM; in [6] it was 9.69 µM. The TGI in test [7] was above 100 µM; in test [8], 25.2 µM; in [9] it was 7 µM; in test [10], 20.9 µM.
On to `COc1ccc2c(c1)[C@]1(C[C@H]1c1ccc3c(/C=C/c4ccc(CN5C[C@@H](C)O[C@@H](C)C5)cc4)n[nH]c3c1)C(=O)N2`, for which the GI50 is 2.86 µM in test [1]; 2.69 µM in test [2]; 8.81 µM in [3]; 3.25 µM in [4]; 2.65 µM in test [5]; 1.85 µM in test [6]. For the same compound, the GI50 in test [7] is 1.79 µM; in test [8], 6.2 µM; in test [9], 11.8 µM; in [10] it was 5.14 µM. The TGI in test [1] is above 100 µM; in test [2], 13.7 µM; in test [3] it was above 100 µM; in [4], 20.6 µM; in test [5], above 100 µM; in [6], 4.4 µM. The TGI in test [7] is above 100 µM; in test [8], 38.1 µM; in test [9], above 61.3 µM; in test [10] it was 45.6 µM.
With `COc1cc(/C=N/Nc2ncnc3c2cnn3C(C)C)ccc1O`, the GI50 is 5.95 µM in [1]; 4.07 µM in test [2]; 6.5 µM in test [3]; 11.8 µM in test [4]; 14.4 µM in test [5]; 4.66 µM in test [6]. The GI50 in [7] is 9.41 µM; in test [8], 8.08 µM; in [9] it was 8.3 µM; in test [10], 8.11 µM. In addition, the TGI in test [1] was above 25 µM; in [2], 11.9 µM; in test [3], above 25 µM; in test [4], above 25 µM; in [5], above 25 µM; in [6], 12.7 µM. Also, the TGI in [7] is above 25 µM; in test [8], above 25 µM; in test [9] it was 21.3 µM; in [10], above 25 µM.
Regarding `COc1cc2c(c(OC)c1OC)C(=O)CC(c1cccc(NC(=O)c3ccc(Br)cc3)c1)O2` (configuration not stated), the GI50 in [1] was 3.02 µM; in test [2], 1.58 µM; in [3], 2.89 µM; in test [4], 2.08 µM; in test [5] it was 1.6 µM; in [6] it was 4.07 µM. For the same compound, the GI50 in test [7] was 2.6 µM; in [8], 2.98 µM; in [9] it was 4.44 µM; in test [10], 3.07 µM. For the same compound, the TGI in test [1] was above 100 µM; in test [2], 4.14 µM; in test [3], above 100 µM; in [4] it was 7.49 µM; in [5] it was above 100 µM; in test [6], above 100 µM. For the same compound, the TGI in test [7], in test [8], in test [9] and in test [10] was above 100 µM each time.
For the compound `CCNC(C)(C)C(SS)c1ccc(Br)cc1` (configuration not stated), the TGI in test [1] was above 100 µM; in [2], 53 µM; in [3] it was above 100 µM; in [4], above 100 µM; in [5] it was above 100 µM; in test [6], above 100 µM. Besides, the TGI in [7], in test [8], in [9] and in [10] was above 100 µM each time.
